In assay [1] the test system is ER/IL-6. Kind of assay: Endothelial Cell ER/IL-6 Assay, IL-6 promoter luciferase (Table 2). It counts as cell-based, human. The conditions noted are these: ERα infected HAECT-1 cells, IL-1β; for IC50: read-out: IL6 luc IC50. The method in brief: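 One lysate gave both read-outs: luciferase for ER/IL-6 and A340 rate after CK reagent for CK, with four-parameter logistic IC50/EC50. Cells were HAECT-1 aortic endothelial cells carrying adenoviral human ERα (or none), dosed […] at 34 °C from 2× stocks containing 2 ng/ml IL-1β and IL-6(1250 bp)-Luc adenovirus.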

For assay [2], the system named is CK. Briefly: Creatine kinase assay in ERα infected HAECT-1 cells (Table 2). It counts as cell-based, human. How it is done:
T-175 flasks of 100% confluent HAECT-1 cells (immortalized human aortic endothelial cells) were washed with 8 ml of HBSS (HEPES buffered saline solution) and infected for fours hours with 6 ml of a 1:10 dilution of Ad5-wt-hERα virus (an adenovirus transfection vector that mediates CMV promoter driven expression of human ERα) in phenol red free Endothelial Cell Basal medium (Clonetics, San Diego, Calif., Catalog # CC-3129) containing 0.25% bovine serum albumin (EDM-BSA). After four hours, cells were washed with EDM-BSA and incubated overnight in the same medium. Following overnight incubation, cells were washed with EDM-BSA and infected for 2 hours with 6 ml of a 1:10 dilution of Ad5-3x(NFκB).Luc virus (Adenovirus luciferase expression vector driven by three repeats of the MHC NFκb sites 5′ to the thymidine kinase promoter) in EDM-BSA. After two hours, cells were washed and incubated at 34° C. for one hour. Cells were then washed, trypsinized, counted, and resuspended in 95% FBS/5% dimethylsulfoxide at a concentration of […], frozen as 1 or 5 ml aliquots in cryo-vials and stored at −150° C. Control (no ER infection) cells were processed as above without Ad5-wt-hERα virus infection.
ERα infected HAECT-1 cells or control cells were thawed, diluted 42× in warm EBM-BSA, plated into 96-well plates at 0.1 ml/well and incubated for 4 hours at 34° C. Test compounds were added to the cells at 2× stocks in EBM-BSA containing 2 ng/ml IL-1β Ad6-IL-6(1250 bp).Luc virus and plates were returned to the incubator (34° C.). After […], cells were lysed with 50 μl of Promega Cell Culture Lysis reagenet for about 5 minutes at room temperature on a shaker. After lysing, 15 μl of lysate is transferred to luminometer plates for luciferase determination. Luciferase activity is evaluated using a Perkin Elmer Victor2 1420 multilabel counter. Creatine kinase was determined from the rate of increase in A340 following addition of 100 μl of CK assay reagent (Sigma catalog no. 47-10) to the remainder of the cell lysate.
For IC50 and EC50 calculations, mean IL-6, luciferase or CK values versus log10 of the compound concentration were fitted to a four parameter logistic equation. The IC50/EC50 value, ‘Hill slope,’ upper and lower limits of the curve were iteratively estimated.

With `COCCOC[C@@](C#N)(C(=O)NC(C)(C)C)[C@@H](c1ccccc1OC)c1cccc2ccccc12` [Example 169, (RR,SS)-N-(tert-Butyl)-2-cyano-2-[(2-methoxyethoxy)methyl]-3-(2-methoxyphenyl)-3-(1-naphthyl)propanamide], in assay [1], the “IL6 luc % Efficacy” value came to 97% and the IC50 amounted to 331 nM. For the same compound, the “CK % Efficacy” value in assay [2] is given as −8%.
The corresponding values for `COCCOCC(C#N)(C(=O)N1CC=C(c2c[nH]c3ccccc23)CC1)C(c1ccccc1OC)c1cccc2ccccc12` (stereo not drawn) [Example 172, (RR,SS)-3-[4-(1H-indol-3-yl)-3,6-dihydropyridin-1(2H)-yl]-2-[(2-methoxyethoxy)methyl]-2-[(S*)-(2-methoxyphenyl)(1-naphthyl)methyl]-3-oxopropanenitrile] are 149%, 114 nM and −13%.
As to `COCCOC[C@@](C#N)(C(=O)OC(C)(C)C)[C@@H](c1ccccc1OC)c1cccc2ccccc12` [Example 173, tert-Butyl (RR,SS)-2-cyano-2-[(2-methoxyethoxy)methyl]-3-(2-methoxyphenyl)-3-(1-naphthyl)propanoate], in assay [1], the “IL6 luc % Efficacy” value is recorded as 124% and the IC50 was 72 nM. In addition, the “CK % Efficacy” value in assay [2] was −13%.
For `COc1ccccc1C(c1cccc2ccccc12)C(C#N)(Cc1cccnc1)C(=O)N1CCN(c2ncccn2)CC1` (stereo not drawn) [Example 174, (RR,SS)-3-(2-methoxyphenyl)-3-(1-naphthyl)-2-(pyridin-3-ylmethyl)-2-[(4-pyrimidin-2-ylpiperazin-1-yl)carbonyl]propanenitrile] the same measures were 49%, 1820 nM and 34%.
For `COc1ccccc1[C@@H](c1cccc2ccccc12)[C@@](C#N)(Cc1cccnc1)C(=O)N1CCN(c2cnccn2)CC1` [Example 177, (RR,SS)-3-(2-methoxyphenyl)-3-(1-naphthyl)-2-[(4-pyrazin-2-ylpiperazin-1-yl)carbonyl]-2-(pyridin-3-ylmethyl)propanenitrile] the same measures were 91%, 1150 nM and −32%.
The corresponding values for `COc1ccccc1C(c1cccc2ccccc12)C(C#N)(Cc1cccnc1)C(=O)N1CC=C(c2c[nH]c3ccccc23)CC1` (stereo not drawn) [Example 178, (RR,SS)-3-[4-(1H-indol-3-yl)-3,6-dihydropyridin-1(2H)-yl]-2-[(2-methoxyphenyl)(1-naphthyl)methyl]-3-oxo-2-(pyridin-3-ylmethyl)propanenitrile] are 137%, 94 nM and −100%.
Regarding `COc1ccccc1[C@H](c1cccc2ccccc12)[C@@](C)(C#N)C(=O)N1CCC2(CC1)OCCO2` [Example 188], in assay [1], the “IL6 luc % Efficacy” value is 107% and the IC50 was found to be 63 nM. Also, the “CK % Efficacy” value in assay [2] was determined as 39%.
For `COC[C@@](C#N)(C(=O)N1CCN(c2ncccn2)CC1)[C@@H](c1ccccc1OC)c1cccc2ccccc12` [Example 200, (RR,SS)-2-(methoxymethyl)-3-(2-methoxyphenyl)-3-(1-naphthyl)-2-[(4-pyrimidin-2-ylpiperazin-1-yl)carbonyl]propanenitrile] the same measures were 162%, 157 nM and 13%.
The corresponding values for `COCC(C#N)(C(=O)N1CCN(C2CCCCC2)CC1)C(c1ccccc1OC)c1cccc2ccccc12` (stereo not drawn) [Example 209, (RR,SS)-3-(4-cyclohexylpiperazin-1-yl)-2-(methoxymethyl)-2-[(2-methoxyphenyl)(1-naphthyl)methyl]-3-oxopropanenitrile] are 116%, 87 nM and 2%.

By IC50 is commonly meant the midpoint of a concentration-inhibition curve.

Source of the values: US20050256132A1, “Use of ER selective NF-kB inhibitors for the treatment of sepsis” (priority 2003, published 2005).
